The values below come from ChEMBL document CHEMBL1201862, “PubChem BioAssay data set” (2004).

Test [1] can be described thus: fluconazole-exposed Candida albicans growth modulators – fluorescence, retest, confirmation (AID 2467). The format is functional, cell-based.
The next test concerns the target Cytochrome P450 3A4 (Homo sapiens, UniProt P08684).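 Further: CYP3A4 tested as one member of a cytochrome P450 panel screen.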
For another test, the target named is X-box-binding protein 1 (Homo sapiens, UniProt P17861). The format is functional, Cricetulus griseus.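 Further: confirmatory dose-response counter-screen serving a CHOP assay.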
The next test has as its target T1, Coagulation factor XII (Homo sapiens, UniProt P00748).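 Further: activated factor XIIa alpha cleaving a fluorogenic AMC peptide substrate; inhibitor potency from loss of enzyme activity.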
T1 sequence (P00748 whole entry): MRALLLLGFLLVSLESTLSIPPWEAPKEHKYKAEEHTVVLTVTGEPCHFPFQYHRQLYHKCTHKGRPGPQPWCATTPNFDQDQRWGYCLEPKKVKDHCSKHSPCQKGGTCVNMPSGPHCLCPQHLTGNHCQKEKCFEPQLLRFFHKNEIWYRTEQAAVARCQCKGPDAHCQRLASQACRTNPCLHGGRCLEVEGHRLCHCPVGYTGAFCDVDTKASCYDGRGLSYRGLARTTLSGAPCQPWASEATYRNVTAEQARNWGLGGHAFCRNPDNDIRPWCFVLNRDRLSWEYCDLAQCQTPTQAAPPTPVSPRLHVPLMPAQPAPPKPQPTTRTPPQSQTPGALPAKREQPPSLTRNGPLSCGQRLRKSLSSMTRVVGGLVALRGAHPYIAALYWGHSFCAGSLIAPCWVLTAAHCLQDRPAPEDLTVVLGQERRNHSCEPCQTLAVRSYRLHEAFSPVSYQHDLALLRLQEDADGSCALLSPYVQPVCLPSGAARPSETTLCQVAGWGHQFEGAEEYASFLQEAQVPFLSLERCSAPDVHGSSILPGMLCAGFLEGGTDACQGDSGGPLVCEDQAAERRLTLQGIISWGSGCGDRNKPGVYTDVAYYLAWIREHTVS
The format is functional.

Test [2] is described as follows: NIH-3T3 fibroblast cytotoxicity, dose response, cytotoxicity control, cell-based, fluorescence, Alamar Blue, secondary assay (AID 2327).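 Further: NIH-3T3 mouse fibroblasts cultured with fluconazole at 8 µg/mL.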 The format is functional.
Test [3] addresses DNA damage-inducible transcript 3 protein (Mus musculus, UniProt P35639). It counts as functional, Cricetulus griseus.
Test [4] concerns the target T2, Fatty acid synthase (Homo sapiens, UniProt P49327). Briefly: inhibition of human FAS-TE enzyme activity – biochemical, endpoint fluorescence intensity, uHTS hits, dose response (AID 624327).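 Further: fluorescence from hydrolysis of an O-methyl fluorescein acyl ester substrate by the enzyme.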 It counts as functional.
Test [5] deals with T2, Fatty acid synthase. Briefly: inhibition of human FAS-TE enzyme activity – biochemical, kinetic fluorescence intensity, dose response (AID 624326).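 Further: rate of fluorescence rise from hydrolysis of a fluorogenic O-methyl fluorescein ester substrate.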 It counts as functional.
The next test addresses T3, Mucolipin-3 (Homo sapiens, UniProt Q8TDD5).
T3 sequence (Q8TDD5 whole entry): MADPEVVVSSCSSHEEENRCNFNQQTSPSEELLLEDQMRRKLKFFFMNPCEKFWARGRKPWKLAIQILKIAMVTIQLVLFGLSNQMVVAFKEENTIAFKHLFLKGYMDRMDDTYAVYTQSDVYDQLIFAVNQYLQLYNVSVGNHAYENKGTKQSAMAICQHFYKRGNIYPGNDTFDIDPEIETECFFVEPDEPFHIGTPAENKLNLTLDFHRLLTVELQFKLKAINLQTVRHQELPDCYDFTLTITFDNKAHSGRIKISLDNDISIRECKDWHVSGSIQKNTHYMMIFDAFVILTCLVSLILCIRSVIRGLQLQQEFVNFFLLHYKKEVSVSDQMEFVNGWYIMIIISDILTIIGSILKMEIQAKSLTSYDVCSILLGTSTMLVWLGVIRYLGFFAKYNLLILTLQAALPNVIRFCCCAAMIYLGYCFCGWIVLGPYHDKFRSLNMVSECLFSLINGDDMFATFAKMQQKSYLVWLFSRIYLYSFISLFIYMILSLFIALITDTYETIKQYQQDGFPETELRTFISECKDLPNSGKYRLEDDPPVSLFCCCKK
Briefly: Fluorescence counterscreen assay for […] agonists: dose response cell-based high-throughput screening assay to identify agonists of the transient receptor potential channel ML3 (TRPML3). [Related pubchem assays: 1424, 1448 ]. The format is functional.

In another test the target is Ion channel NompC (Danio rerio, UniProt Q7T1G6). Description: Dose response cell-based high-throughput screening assay for agonists of the transient receptor potential channel N1 (TRPN1). [Related pubchem assays (depositor defined):AID1424, AID1448]. It counts as functional.
Test [6] can be described thus: toxicity toward cultured mammalian cells – cell-based, plate reader, cherry-pick samples, cytotoxicity control, dose response (AID 504397). It counts as functional.
For test [7], the target named is T4, Serine/threonine-protein phosphatase (Candida dubliniensis (strain CD36 / CBS 7987 / NCPF 3949 / NRRLY-17841) (Yeast), UniProt B9W6M3).
T4 sequence (B9W6M3 whole entry): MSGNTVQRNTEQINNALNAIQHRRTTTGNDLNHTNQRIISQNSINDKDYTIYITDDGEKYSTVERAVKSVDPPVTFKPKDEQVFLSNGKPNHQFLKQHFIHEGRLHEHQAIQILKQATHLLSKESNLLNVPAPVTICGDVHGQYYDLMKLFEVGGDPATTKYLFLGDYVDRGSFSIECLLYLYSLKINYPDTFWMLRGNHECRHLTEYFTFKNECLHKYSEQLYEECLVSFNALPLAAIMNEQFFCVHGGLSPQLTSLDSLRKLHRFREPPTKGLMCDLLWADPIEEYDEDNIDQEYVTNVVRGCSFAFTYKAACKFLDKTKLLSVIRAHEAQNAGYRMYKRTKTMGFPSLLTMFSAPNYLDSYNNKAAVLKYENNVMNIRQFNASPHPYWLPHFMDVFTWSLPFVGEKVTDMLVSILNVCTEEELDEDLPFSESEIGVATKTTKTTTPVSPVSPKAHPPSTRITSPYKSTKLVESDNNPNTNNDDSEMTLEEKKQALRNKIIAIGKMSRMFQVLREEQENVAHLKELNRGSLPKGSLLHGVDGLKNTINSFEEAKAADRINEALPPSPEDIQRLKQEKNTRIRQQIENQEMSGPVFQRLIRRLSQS
Briefly: blockers of CaCl2-induced CDRE-lacZ signaling – S. cerevisiae, luminescence, secondary, dose response (AID 2388).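 Further: yeast reporter cells carrying a calcineurin-responsive lacZ construct stimulated with calcium chloride; luminescent beta-galactosidase reporter signal in whole cells rather than isolated phosphatase activity; potency for inhibition where a drop in reporter signal means calcineurin blockade.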 The format is functional, cell-based.

The target of test [8] is T5, Peroxisome proliferator-activated receptor gamma (Homo sapiens, UniProt P37231).
T5 sequence (P37231 whole entry): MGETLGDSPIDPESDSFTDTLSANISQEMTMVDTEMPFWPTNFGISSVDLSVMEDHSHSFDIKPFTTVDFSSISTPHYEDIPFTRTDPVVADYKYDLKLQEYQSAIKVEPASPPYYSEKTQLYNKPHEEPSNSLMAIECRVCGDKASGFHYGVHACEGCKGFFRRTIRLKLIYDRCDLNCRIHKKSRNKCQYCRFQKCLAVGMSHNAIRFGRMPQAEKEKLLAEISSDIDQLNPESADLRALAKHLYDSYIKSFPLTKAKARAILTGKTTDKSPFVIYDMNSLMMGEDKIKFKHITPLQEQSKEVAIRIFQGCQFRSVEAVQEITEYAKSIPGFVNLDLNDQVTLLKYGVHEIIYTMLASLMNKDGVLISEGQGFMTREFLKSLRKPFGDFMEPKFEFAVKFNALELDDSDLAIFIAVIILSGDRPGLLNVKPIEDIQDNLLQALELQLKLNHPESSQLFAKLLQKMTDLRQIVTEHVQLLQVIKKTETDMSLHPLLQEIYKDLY
Description: competitive ligand displacement at PPARg – biochemical, TR-FRET, LanthaScreen, PPARg partial agonist project, dose response (AID 504446). Background: Time-resolved FRET reads energy transfer from a long-lived donor to a nearby acceptor.

The target in test [9] is ATP-dependent molecular chaperone HSP82 (Candida albicans (strain WO-1) (Yeast), UniProt C4YTQ8). Description: steroid-induced GRE reporter decrease in yeast – S. cerevisiae, luminescence, Hsp90 inhibitor project, dose response (AID 2400).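 Further: beta-galactosidase luminescence from glucocorticoid response element reporter as proxy for Hsp90 function; inhibitor potency where signal loss means Hsp90 inhibition.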 It counts as functional, cell-based.
The target of test [10] is T5, Peroxisome proliferator-activated receptor gamma. Description: competitive ligand displacement at PPARg – biochemical, fluorescence polarization, PolarScreen, PPARg partial agonist project, dose response (AID 504453).
Test [11] shares this target. Briefly: PPARg transcriptional activation, reporter cells – cell-based, luminescence, assay provider, dose response (AID 504447). The format is functional.
Test [12] has as its target Voltage-dependent T-type calcium channel subunit alpha-1H (Homo sapiens, UniProt O95180). Briefly: human CACNA1H calcium influx blockade – cell-based, synthetic library set 2, HEK293 HH8, Fluo-4, SAR follow-up (AID 493023). The format is functional.
The target of test [13] is T6, Tyrosine-protein phosphatase non-receptor type 22 (Homo sapiens, UniProt Q9Y2R2).
T6 sequence (Q9Y2R2 whole entry): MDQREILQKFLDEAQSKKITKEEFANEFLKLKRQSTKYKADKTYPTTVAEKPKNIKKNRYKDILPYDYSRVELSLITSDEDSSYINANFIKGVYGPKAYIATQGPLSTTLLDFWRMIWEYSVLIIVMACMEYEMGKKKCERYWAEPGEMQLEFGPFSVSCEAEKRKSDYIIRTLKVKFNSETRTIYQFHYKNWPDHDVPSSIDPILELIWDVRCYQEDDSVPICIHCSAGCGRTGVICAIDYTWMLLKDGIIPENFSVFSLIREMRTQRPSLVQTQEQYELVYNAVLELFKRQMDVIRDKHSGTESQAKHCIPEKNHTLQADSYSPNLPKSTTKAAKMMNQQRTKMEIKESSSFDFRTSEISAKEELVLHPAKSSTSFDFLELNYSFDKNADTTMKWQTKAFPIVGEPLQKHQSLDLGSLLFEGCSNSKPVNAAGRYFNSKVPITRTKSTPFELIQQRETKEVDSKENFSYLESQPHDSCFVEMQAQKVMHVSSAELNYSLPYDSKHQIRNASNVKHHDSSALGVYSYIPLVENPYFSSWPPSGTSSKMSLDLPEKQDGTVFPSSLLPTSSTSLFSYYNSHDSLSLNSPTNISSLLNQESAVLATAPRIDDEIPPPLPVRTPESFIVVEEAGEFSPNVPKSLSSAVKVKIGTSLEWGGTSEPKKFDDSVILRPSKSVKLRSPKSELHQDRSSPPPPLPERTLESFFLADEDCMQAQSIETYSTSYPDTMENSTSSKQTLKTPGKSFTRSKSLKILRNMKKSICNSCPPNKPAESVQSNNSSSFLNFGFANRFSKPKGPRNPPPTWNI
The format is functional.

Test [14] addresses T6, Tyrosine-protein phosphatase non-receptor type 22. It counts as functional. The source holds these as a separate data set.
The target of test [15] is T7, Tyrosine-protein phosphatase non-receptor type 7 (Homo sapiens, UniProt P35236).
T7 sequence (P35236 whole entry): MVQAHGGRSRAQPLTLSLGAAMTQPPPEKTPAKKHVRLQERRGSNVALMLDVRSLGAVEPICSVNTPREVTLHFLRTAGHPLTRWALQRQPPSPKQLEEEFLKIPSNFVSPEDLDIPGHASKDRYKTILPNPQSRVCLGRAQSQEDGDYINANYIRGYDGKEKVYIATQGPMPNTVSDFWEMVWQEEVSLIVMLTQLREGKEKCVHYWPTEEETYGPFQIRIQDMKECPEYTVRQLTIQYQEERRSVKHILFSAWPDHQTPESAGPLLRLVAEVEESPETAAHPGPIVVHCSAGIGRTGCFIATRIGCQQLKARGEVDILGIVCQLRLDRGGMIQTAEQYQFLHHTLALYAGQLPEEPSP
The format is functional.

A further test deals with Troponin, cardiac muscle (Homo sapiens, UniProt P19429+P45379+P63316). Briefly: Fluorescence-based biochemical high throughput dose response assay for activators of the calcium sensitivity of cardiac Regulated Thin Filaments (RTF). [Related pubchem assays (depositor defined):AID493008, AID493018, AID504382, AID504383]. The format is protein-complex assay.

Active and inactive are the calls of the source.

T2 sequence (P49327 whole entry): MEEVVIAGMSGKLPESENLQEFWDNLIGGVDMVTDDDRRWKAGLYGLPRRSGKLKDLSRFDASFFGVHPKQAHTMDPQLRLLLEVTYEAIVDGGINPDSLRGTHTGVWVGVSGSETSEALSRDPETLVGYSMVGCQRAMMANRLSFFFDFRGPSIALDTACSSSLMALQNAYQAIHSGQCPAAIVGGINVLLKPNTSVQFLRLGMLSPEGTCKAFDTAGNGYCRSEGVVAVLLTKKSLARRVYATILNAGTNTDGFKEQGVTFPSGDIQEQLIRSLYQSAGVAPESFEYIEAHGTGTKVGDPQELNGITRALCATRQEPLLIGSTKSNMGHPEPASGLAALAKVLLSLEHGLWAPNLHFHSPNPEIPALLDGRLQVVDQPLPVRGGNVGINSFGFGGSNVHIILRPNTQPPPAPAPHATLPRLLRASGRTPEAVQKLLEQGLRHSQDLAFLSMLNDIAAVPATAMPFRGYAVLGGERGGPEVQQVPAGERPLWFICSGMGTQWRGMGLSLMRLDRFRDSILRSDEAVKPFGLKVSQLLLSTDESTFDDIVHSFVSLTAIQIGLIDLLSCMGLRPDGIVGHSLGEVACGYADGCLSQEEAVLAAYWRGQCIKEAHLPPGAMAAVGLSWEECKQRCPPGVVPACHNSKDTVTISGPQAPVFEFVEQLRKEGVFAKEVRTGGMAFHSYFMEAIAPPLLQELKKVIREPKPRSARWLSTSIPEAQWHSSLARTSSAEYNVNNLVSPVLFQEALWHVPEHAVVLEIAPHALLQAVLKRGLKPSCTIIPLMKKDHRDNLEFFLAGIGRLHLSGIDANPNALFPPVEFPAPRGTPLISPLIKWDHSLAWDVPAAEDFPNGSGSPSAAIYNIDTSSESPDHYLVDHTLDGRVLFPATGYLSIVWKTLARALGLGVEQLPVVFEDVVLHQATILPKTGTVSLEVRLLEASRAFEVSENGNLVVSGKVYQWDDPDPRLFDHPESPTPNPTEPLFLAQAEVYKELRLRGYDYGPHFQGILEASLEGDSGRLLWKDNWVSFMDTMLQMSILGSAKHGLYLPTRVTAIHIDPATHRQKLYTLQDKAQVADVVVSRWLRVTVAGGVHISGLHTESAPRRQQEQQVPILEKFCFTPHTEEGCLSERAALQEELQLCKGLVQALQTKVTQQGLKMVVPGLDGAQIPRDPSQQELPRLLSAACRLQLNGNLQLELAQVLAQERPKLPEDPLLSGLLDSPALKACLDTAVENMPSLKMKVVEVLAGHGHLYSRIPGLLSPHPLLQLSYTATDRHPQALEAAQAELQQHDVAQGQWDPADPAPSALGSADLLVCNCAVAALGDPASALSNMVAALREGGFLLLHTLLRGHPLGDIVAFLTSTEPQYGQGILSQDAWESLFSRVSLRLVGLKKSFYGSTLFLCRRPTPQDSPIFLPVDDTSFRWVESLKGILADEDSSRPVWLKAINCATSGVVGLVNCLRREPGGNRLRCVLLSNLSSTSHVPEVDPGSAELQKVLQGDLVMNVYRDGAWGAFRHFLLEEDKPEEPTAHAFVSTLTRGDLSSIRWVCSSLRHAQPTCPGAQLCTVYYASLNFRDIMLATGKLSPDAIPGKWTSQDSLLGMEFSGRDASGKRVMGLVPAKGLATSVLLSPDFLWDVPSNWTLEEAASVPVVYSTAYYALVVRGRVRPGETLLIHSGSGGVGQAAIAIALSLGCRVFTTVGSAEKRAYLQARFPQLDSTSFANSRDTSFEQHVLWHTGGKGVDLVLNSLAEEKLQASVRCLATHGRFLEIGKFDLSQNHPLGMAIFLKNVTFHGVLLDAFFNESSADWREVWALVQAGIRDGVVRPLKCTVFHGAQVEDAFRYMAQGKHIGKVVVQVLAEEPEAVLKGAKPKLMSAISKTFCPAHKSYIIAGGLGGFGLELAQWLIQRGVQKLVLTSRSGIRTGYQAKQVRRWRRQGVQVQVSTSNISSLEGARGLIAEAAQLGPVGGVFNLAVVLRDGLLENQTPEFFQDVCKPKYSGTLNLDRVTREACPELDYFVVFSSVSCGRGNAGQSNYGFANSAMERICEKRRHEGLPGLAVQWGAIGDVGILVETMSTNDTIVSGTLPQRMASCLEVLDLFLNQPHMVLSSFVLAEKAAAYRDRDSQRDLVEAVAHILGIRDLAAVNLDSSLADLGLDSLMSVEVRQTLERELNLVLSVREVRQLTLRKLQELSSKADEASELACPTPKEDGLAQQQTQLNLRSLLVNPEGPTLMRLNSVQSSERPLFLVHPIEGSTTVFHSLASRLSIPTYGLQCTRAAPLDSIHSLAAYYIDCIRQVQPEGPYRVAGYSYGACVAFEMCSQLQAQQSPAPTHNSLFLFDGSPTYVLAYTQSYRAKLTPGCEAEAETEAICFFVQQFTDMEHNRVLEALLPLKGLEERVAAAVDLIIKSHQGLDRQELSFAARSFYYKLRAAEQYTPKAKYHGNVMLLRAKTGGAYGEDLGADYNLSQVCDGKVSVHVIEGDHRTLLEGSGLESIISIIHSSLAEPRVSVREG
Sequence of Ion channel NompC (Q7T1G6 whole entry): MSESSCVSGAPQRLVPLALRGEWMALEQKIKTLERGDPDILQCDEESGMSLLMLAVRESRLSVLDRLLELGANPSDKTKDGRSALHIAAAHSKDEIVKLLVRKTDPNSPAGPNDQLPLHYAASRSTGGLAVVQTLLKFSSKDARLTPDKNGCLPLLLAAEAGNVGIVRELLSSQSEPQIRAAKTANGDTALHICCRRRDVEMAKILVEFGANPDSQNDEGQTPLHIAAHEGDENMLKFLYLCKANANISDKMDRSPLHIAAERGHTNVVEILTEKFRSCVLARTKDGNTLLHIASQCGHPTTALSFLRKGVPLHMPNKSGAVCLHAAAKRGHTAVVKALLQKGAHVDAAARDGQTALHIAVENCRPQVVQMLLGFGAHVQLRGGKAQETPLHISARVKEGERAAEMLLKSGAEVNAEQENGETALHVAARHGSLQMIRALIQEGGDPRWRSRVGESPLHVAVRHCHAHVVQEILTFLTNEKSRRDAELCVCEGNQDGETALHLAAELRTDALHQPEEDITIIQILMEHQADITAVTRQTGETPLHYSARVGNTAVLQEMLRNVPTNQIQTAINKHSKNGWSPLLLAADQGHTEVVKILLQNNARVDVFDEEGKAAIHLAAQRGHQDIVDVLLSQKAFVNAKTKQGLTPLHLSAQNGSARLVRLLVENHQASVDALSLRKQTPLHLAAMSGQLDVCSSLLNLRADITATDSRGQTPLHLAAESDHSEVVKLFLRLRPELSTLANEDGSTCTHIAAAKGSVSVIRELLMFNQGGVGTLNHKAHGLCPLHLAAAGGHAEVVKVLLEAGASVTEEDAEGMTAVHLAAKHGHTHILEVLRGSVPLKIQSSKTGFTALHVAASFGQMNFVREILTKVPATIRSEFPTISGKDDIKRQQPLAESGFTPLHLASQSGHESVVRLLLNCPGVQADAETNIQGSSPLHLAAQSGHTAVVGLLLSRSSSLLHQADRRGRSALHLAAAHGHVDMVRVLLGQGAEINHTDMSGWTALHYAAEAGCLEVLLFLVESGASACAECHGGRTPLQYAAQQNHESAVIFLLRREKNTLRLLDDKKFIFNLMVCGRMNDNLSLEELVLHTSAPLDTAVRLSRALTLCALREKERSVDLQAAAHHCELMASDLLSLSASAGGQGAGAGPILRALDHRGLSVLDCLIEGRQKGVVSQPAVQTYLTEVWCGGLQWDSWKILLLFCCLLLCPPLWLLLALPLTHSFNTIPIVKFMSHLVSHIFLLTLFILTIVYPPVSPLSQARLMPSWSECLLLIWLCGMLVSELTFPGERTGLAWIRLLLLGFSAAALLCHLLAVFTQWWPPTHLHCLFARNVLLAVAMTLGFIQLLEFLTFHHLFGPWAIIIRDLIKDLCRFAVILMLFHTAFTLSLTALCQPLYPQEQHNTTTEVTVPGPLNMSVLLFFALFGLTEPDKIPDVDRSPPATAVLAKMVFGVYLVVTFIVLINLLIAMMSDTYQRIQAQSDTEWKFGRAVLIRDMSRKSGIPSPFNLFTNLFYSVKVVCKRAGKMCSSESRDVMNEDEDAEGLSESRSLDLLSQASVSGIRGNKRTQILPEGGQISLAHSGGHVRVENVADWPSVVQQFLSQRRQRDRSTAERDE
Sequence of Cytochrome P450 3A4 (P08684 whole entry): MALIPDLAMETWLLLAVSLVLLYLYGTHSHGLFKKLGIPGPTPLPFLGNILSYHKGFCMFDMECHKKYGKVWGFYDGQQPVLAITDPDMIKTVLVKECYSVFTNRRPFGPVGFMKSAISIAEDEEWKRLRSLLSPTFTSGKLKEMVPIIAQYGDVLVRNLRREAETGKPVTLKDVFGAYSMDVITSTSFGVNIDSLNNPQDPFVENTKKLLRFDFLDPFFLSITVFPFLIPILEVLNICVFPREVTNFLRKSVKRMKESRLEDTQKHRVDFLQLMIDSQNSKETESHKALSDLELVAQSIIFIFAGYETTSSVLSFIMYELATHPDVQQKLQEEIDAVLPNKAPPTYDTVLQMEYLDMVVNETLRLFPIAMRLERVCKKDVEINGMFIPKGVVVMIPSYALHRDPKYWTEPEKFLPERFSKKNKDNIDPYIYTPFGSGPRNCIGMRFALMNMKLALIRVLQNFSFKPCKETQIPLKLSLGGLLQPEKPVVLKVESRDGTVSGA
Sequence of DNA damage-inducible transcript 3 protein (P35639 whole entry): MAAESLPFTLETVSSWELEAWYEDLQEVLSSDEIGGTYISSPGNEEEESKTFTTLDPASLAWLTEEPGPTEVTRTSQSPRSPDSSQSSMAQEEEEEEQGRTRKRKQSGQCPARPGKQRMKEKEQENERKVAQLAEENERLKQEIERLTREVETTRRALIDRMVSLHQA
Sequence of X-box-binding protein 1 (P17861 whole entry): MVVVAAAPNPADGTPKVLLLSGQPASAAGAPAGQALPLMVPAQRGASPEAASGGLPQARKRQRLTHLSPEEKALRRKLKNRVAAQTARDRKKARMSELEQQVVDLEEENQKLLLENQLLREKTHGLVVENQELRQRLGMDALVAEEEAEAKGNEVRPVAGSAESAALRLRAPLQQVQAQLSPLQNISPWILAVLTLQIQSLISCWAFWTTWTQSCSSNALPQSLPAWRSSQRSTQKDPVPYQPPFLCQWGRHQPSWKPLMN

For the compound `Cc1cc(C)c(C)c(S(=O)(=O)ON2C(=O)c3ccccc3C2=O)c1C`, the figures for the EC50 in test [1] and in test [2] were 4.78 µM (active) and 3.15 µM (inconclusive), respectively. In addition, on Cytochrome P450 3A4, the AC50 (in general, the midpoint of the concentration-response curve, whichever way the signal moves) is 39.8 µM (inconclusive). Moreover, on X-box-binding protein 1, the “Absolute IC50 (XBP1)” value was 10 µM. Also, the IC50 (as a rule, the concentration that inhibits the measured activity by half) at Coagulation factor XII is 12.9 µM (active); on Fatty acid synthase [4] it was 0.61 µM (active); at Fatty acid synthase [5] it was 0.417 µM (active). In addition, the “Absolute IC50 (CHOP)” value in [3] came to 10 µM.

As to `N#C/C(=C(/O)C(Cl)(Cl)Cl)c1nc2ccccc2[nH]1`, the results for the EC50 on Mucolipin-3 and on Ion channel NompC were > 29.9 µM (not active) and > 29.9 µM (inactive), respectively.

With `COc1ccc(CCN(C)C(=O)c2ccc(S(=O)(=O)Nc3ccccc3C)cc2)cc1OC`, the AC50 in test [6] is > 350 µM (inactive).

For `Cc1ccc2nc(N3C(=O)C(O)=C(C(=O)c4ccco4)C3c3ccc(C)o3)sc2c1` (stereo not drawn), the 50% effective concentration (EC50) – broadly, the concentration at which the effect is half-maximal – in test [1] is 0.071 µM (active); in [2], 67.5 µM (active); in [7] it was > 180 µM (inactive); in test [9], 9.58 µM (active); in test [11] it was 26 µM (active). The results for the IC50 in [8] and in [10] were 14 µM (inactive) and 30 µM (active), respectively.

As for `CC(C)(C)CCN1CCC[C@H](NC(=O)COc2ccc(F)cc2Cl)C1`, the EC50 in [12] is 2.4 µM (active).

As to `COC(=O)C1=NN(C(=O)c2cccc(Cl)c2)C(O)(C(C)(C)C)C1` (stereo not drawn), the IC50 in test [13], in test [14] and in test [15] was > 79.4 µM (inactive) throughout.

Turning to `Cc1cc(S(=O)(=O)N2CCCC(C(=O)Nc3ccc(C(=O)O)cc3)C2)ccc1Cl` (stereo not drawn), the EC50 on Troponin, cardiac muscle was > 71.5 µM (inactive).
